Experimental findings from US20110300147A9, “Inhibiting tumor cell invasion, metastasis and angiogenesis” (The Scripps Research institute, priority 2005, published 2011) are described below.

Peptide text beside a SMILES is read from it. * marks the point of attachment. Doxorubicin(3'-N) = COc1cccc2c1C(=O)c1c(O)c3c(c(O)c1C2=O)C[C@@](O)(C(=O)CO)C[C@@H]3O[C@H]1C[C@H](N*)[C@H](O)[C@H](C)O1; Boc = CC(C)(C)OC(=O)*

For series [1], the target named is T1, legumain in MDA MB231 breast cancer cells (Homo sapiens, UniProt Q99538).
T1 construct: endogenous in cells; host or cells: MDA-MB-231 human breast cancer cells
T1 sequence (Q99538 18-323): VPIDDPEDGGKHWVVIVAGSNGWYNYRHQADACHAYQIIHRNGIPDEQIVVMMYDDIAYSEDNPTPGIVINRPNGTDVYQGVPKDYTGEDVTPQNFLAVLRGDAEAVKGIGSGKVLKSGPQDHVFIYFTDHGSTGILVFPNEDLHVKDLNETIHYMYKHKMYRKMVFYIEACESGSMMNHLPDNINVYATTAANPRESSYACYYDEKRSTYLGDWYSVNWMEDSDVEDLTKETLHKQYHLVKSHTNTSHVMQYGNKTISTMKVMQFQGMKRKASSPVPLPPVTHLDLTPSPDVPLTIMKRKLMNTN
The series is described as follows: AEPI inhibitory assay, intracellular legumain activity. It counts as cell-based. How it is done: AEPI Inhibitory Assay. Cancer cells were centrifuged at 800 rpm for 10 minutes and resuspended in DMEM to a density of 1.0×10^5 cells/ml. Approximately 5 ml of cells is used per assay plate. Cells (100 ul) were added to a 96-well plat bottom plate (10,000 cells/well, all the inner wells) and 100 ul of media was added to the outer wells. The cells were incubated at 37° C. overnight. The inhibitor compounds were diluted in a 96 well round bottom plate and the old media was removed from the cancer cell assay plate. The inhibitor (100 ul) was added to the cell assay plate and 200 ul of media was added to the outer wells. One to three days after the cancer cells were exposed to the inhibitor, the AEP activity was assessed as follows. Cells were detached with Trypsin-free cell-cell detachment media and transfer to Eppendorf tubes. Cells were then disrupted and the AEPI substrate was added to the cell lysate. This assay mixture was then incubated for an appropriate period of time and the amount of activated substrate was measured with fluorometer.

The next series deals with cancer cells. The series is described as follows: chemo-sensitizing cytotoxic assay, TNF-α plus legumain inhibitor. It counts as cell-based. Particulars: compared among AEPI-1 to AEPI-5. Here is the method: Chemo-sensitizing Cytotoxic Assay. Cancer cells were prepared for the assay as follows. The cells were centrifuged at 800 rpm for 10 minutes, resuspended in DMEM to a density of 1.0×10^5 cells/ml. Approximately 5 ml of cells were used per assay plate. Cells (100 ul) were added to a 96-well flat bottom plate (10,000 cells/well, all the inner wells) and 100 ul of media was added to the outer wells. The plates were incubated at 37° C. overnight. AEPI dilutions were prepared using a 96 well round bottom plate and medium as the diluent. After overnight incubation, the media was removed from the cancer cell assay plate, and the selected AEPI was added at the selected dilution or concentration. An additional 200 ul of media was added to the outer wells. Plates were incubated overnight at 37° C. XTT reagent (or other cell viability reagent) was prepared in phenol red free media. The media was removed from cells and 200 ul of fresh media containing the XTT reagent was added to all wells. The plates were incubated for 30 min to 4 hrs and cell viability was determined by reading the plates according to manufacturer specifications.

The subject of series [2] is legumain-expressing 293 (293L) cells. As to the kind of experiment: TNF-α induced cell death with or without AEPI-5. It is filed as cell-based, human. Particulars: with or without AEPI-5, function of TNF-α concentration.
For series [3] the test system is unchanged. The series is described as follows: UV-induced apoptosis of legumain-expressing 293 cells. It is filed as cell-based, human. Conditions: dead cells after UV treatment as a function of AEPI-5 concentration.
Series [4] deals with legumain+ 293 cells. The series is described as follows: modified Boyden chamber invasion assay. It counts as cell-based, human. Here is the method:
(§1) Cell invasion and mobility assays. Cell migration and invasion assays were performed as described with modifications (Albini et al., 1987). Stock solutions (15 mg/ml) of Matrigel basement membrane matrix (Becton Dickinson, Bedford, Mass.) were stored at −80° C. in 100 μl aliquots. After thawing on ice, the stock was diluted 1:50 with cold serum-free culture media and immediately applied to each membrane insert (8 μm pore) that formed the upper chambers of the multi-well invasion assay plate. The Matrigel was incubated overnight in a sterile laminar tissue culture hood. The membranes were hydrated for 2 hours with 250 μl of serum-free medium and excess medium was removed by aspiration. Medium containing 10% FBS was added to the bottom of each well. A suspension of 10^5 cells in 150 μl of serum-free medium was added to the upper chamber and incubated for 12 hours at 37° C., 5% CO2. At the indicated times, the membrane inserts were removed from the plate and the non-invading cells were removed from the upper surface. Membrane associated cells were stained with 0.09% crystal violet for 30 minutes and washed twice with PBS. The invading cells were counted microscopically. Cell mobility assays were performed in a similar manner except the membrane inserts were not coated with Matrigel, and duration was shortened. […]

Series [5] has as its system legumain+ 293 cells. The series is described as follows: WST-1 cytotoxicity assay, legumain+ 293 cells. Conditions: 48 h. How it is done:
(§2) Cytotoxic assays. The WST-1 cell proliferation reagent (Roche Molecular Chemicals, Germany) was used to determine cell proliferation by quantification of cellular metabolic activity. Control 293 cells and legumain+ 293 cells were cultivated in microtiter plates (5×10^3 cells per well in 100 μl) and were incubated with serial concentrations of legubicin or doxorubicin for 48 h. Subsequently, 10 μl of WST-1 solution (1 mg/ml WST-1, 25 μM -methyldibenzopyrazine methyl sulfate) was added per well, and mixtures were incubated for an additional 4 h. The tetrazolium salt WST-1 (4-[3-(4-lodophenyl)-2-(4-nitrophenyl)-2H-5-tetrazolio-1,3-benzene disfonate) was cleaved by the mitochondrial succinate-tetrazolium-reductase system to formazan in cells which directly correlates to the number of metabolically viable cells in the culture. The amount of formazan salt was quantified in three replicates by absorbance at 450 nm using a micro-plate reader (Molecular Devices, Palo Alto, Calif.).
(§3) Cytotoxicity assays. The WST-1 cell proliferation reagent (Roche Molecular Chemicals, Germany) was used to determine cell proliferation by quantization of cellular metabolic activity. […] The amount of formazan salt was quantified in three replicates by absorbance at 450 nm using a micro-plate reader (Molecular Devices, Palo Alto, Calif.).
In general terms: Tetrazolium dyes change colour on reduction, which living cells bring about.

A further series deals with control 293 cells. The series is described as follows: WST-1 cytotoxicity assay, control 293 cells. Conditions: control 293 cells, 48 h. How it is done:
as §2, §3

Series [6] deals with CT26 murine colon carcinoma. As to the kind of experiment: CT26 syngeneic murine colon carcinoma model. It counts as in vivo, Balb/c mice. An excerpt: Animal models. […] Balb/C mice aged 4 to 6 weeks from the breeding colony were inoculated with 500,000 syngeneic CT26 tumor cells per site subcutaneously in the back. […] Treatment was repeated at 2 day intervals. The human 293 tumor models were generated in WEHI nude mice (The Scripps Research Institute breeding colony). […] Tumor growth and physical signs were monitored daily including any gross evidence of tumor necrosis, local tumor ulceration as well as evidence of toxicity including mobility, response to stimulus, eating, and weight of each animal. These procedures have been reviewed and approved by the Institutional Animal Care and Use Committee at The Scripps Research Institute. The work was conducted in The Scripps Research Institute facilities which are accredited by the Association for the Assessment and Accreditation of Laboratory Animal Care. The Scripps Research Institute maintains an assurance with the Public Health Service, is registered with the United States Department of Agriculture and is in compliance with all regulations relating to animal care and welfare.
Animal models. […] Treatment was three times per week for two weeks.

In series [7] the test system is legumain+ 293 cells. The series is described as follows: in vitro migration assay. It counts as cell-based, human. How it is done:
as §1

The target in series [8] is T2, cell surface bound legumain (Homo sapiens, UniProt Q99538).
T2 construct: expressed in transfected cells; host or cells: 293 cells stably expressing human legumain (legumain+ 293)
T2 sequence (Q99538 18-323): as above
The series is described as follows: gelatin zymogram, activation of progelatinase A by cells expressing legumain. It is filed as cell-based. Conditions: zymogen incubated with cells 10 minutes. How it is done: Zymogram. Control 293 cells and legumain+ 293 cells were plated into 96 wells plates at a cell density of 4,000 cells/well. The cells were allowed to attach overnight, then were serum starved for four hours. Zymogen forms of metalloproteinase 2 or 9 (Chemicon, Temecula, Calif.) were added at concentration of 0.1 μg/well with 50 μl reaction buffer (39.5 mM citric acid, 121 mM Na2HPO4, pH 5.8, 1 mM EDTA, and 0.8% […]) and the reactions were continued for 10 minutes. The reactants were collected and mixed with an equal volume of SDS sample buffer and held at room temperature for 10 minutes then applied to a zymogram gel (10% Tris-Glycine gel with 0.1% gelatin substrate). After electrophoresis, the gel was washed briefly and incubated with 2.5% (v/v) Triton X-100 at room temperature for 30 minutes with gentle agitation. Digestion of the incorporated gelatin by activated collagenase was conducted in buffer ([…], pH 7.25, 200 mM NaCl, […], 0.05% Brij-35, 0.02% NaN3) overnight. The gel was stained with Coomassie Blue R250 (Novex, San Diego, Calif.) and the presence of a protease was readily observed as a clear band.
Activation of progelatinase A by legumain. […] Zymogen forms of gelatinase A and B were incubated with the cells for 10 minutes, and the reaction products were analyzed by zymography. […] Moreover, no effect of legumain on zymogen gelatinase B was detected.

Series [9] has as its system legumain-promoted cancer cell invasion. The series is described as follows: cancer cell invasion assay with recombinant legumain protein. Conditions: recombinant legumain protein added. It is filed as cell-based. Here is the method:
as §1

`CCOC(=O)C1OC1C(=O)N(CC(N)=O)NC(=O)C(C)NC(=O)C(C)NC(C)=O` [AEPI-5, N-acetyl-Ala-Ala-AzaAsn-(S,S)-EPCOOEt]: the “inhibition of legumain activities in MDA MB231 breast cancer cells” value in [1] (compared among AEPI-1 to AEPI-5) is “greatest inhibition”. In addition, the cell permeability entry in series [1] (preliminary results) was “sufficiently cell permeable”. Moreover, the “cancer cell death on combined treatment with TNF-α” value in the series with cancer cells is “higher levels of cancer cell death”. Besides, the “TNF-α induced cell death” value in series [2] was “sensitizes MDA-MB-231 human breast cancer cells to TNF-α induced cell death”. The UV-induced apoptosis result in [3] is listed as “sensitizes legumain-expressing 293 cells to UV-induced apoptosis”.

`CC(C)C[C@H](NC(=O)[C@H]1O[C@@H]1C(=O)O)C(=O)NCCCCN=C(N)N` [E64, reference compound]: the “increased invasion of extracellular matrix by legumain+ cells” value with legumain+ 293 cells [4] is recorded as “without effect”.

For the compound `COc1cccc2c1C(=O)c1c(O)c3c(c(O)c1C2=O)C[C@@](O)(C(=O)CO)C[C@@H]3O[C@H]1C[C@H](NC(=O)[C@H](CC(C)C)NC(=O)[C@H](CC(N)=O)NC(=O)[C@H](C)NC(=O)[C@H](C)NC(=O)OC(C)(C)C)[C@H](O)[C@H](C)O1` [legubicin, N-(-t-Butoxycarbonyl-L-alanyl-L-alanyl-L-asparaginyl-L-leucyl)doxorubicin] (Boc-AANL-{Doxorubicin(3'-N)}), the “cytotoxic effect on legumain+ 293 cells” value in the series on legumain+ 293 cells [5] is “profound cytotoxic effect”. Besides, in the series on control 293 cells, the “cytotoxic effect relative to that of doxorubicin” value is “less than 1%”. The toxicity entry in [6] (i.p. 5 mg/kg three times at 2 day intervals) is “little evidence of toxicity”. Moreover, in [6] (single injection of 5 mg/kg), the “injury in organs that express legumain (kidney, liver)” value is “no injury was evident”.

Turning to cystatin, in the series on legumain+ 293 cells [7], the “enhanced migration of legumain+ 293 cells” value is listed as “inhibited”. Moreover, the “generation of the 62 kDa active gelatinase A by cells expressing legumain” value in series [8] was “inhibited”. Further, the “increased invasion of extracellular matrix by legumain+ cells” value in the series on legumain+ 293 cells [4] was “inhibited”. Moreover, in [9], the legumain-promoted cell invasion entry is given as “partially inhibited”.
